In patent US20050137177A1, “Ester combination local anesthetic” (priority 2003, published 2005):

What was measured:
sciatic nerve [1] = test: Rat sciatic nerve block, onset and offset (withdrawal to pinch, proprioception, motor strength); format: in vivo; details: for duration of sensory block (in words) / onset of sensory block (in words) / duration of full sensory block (until it started to decay): 2% 2-chloroprocaine; for duration of sensory block (in words) / onset of sensory block (in words): 0.22% or 0.5% tetracaine
Description: The onset and offset of sciatic nerve block from lidocaine, bupivacaine, tetracaine, and 2-chloroprocaine were examined in studies conducted in rats. Three different modalities were tested: (1) pain (e.g., withdrawal to pinch); (2) proprioception (e.g., the ability to place the paw squarely on the table); and (3) motor strength (e.g., the downward pressure the paw can exert on a scale). In each case, the same volume of local anesthetic agent was tested. The modality of interest was withdrawal to pinch. Each local anesthetic was tested on 5 rats of nearly identical size and age.

[2] = between 1990 and 1997; Medline database; cited from earlier work
rat peroneal nerve = details: in vivo; for peroneal total axonal counts (± SEM): 5 days
Description: Sections of rat peroneal nerve were taken for evaluation with light microscopy five days post injection with local anesthetic(s). Specifically, each nerve was sectioned and total axonal counts were taken to assess any axonal loss. Five nerves were examined for each treatment condition. The peroneal axonal counts five days after control (saline), bupivacaine, and 2.3% 2-chloroprocaine/0.17% tetracaine injections were 2063±30 (SEM), 1959±81, and 1993±45, respectively.

sciatic nerve [3] = details: rat, in vivo
Description: Sections were also taken across the sciatic nerve five days after injection with local anesthetic(s) and examined for gross pathological injury.

[4] = 0.17% tetracaine + 2.3% 2-chloroprocaine
[5] = 2.0% lidocaine, 0.17% tetracaine + 2.3% 2-chloroprocaine
[6] = withdrawal to pinch, 2.0% lidocaine, 0.5% bupivacaine, 0.17% tetracaine + 2.3% 2-chloroprocaine

Structure (SMILES) | duration of sensory block (in words) (sciatic nerve [1]; [4]) | onset of sensory block (in words) (sciatic nerve [1]; [5]) | duration of full sensory block (until it started to decay) (sciatic nerve [1]; [6]) | onset of sensory block relative to 2.0% lidocaine (sciatic nerve [1]; 0.5% bupivacaine vs 2.0% lidocaine) [times slower] | time to achieve full sensory block (onset) (sciatic nerve [1]; withdrawal to pinch, 0.5% bupivacaine, 0.17% tetracaine + 2.3% 2-chloroprocaine, same volume, 5 rats) [min] | deaths (e.g., heart arrest, myocardial infarction, accidental overdose) [2] [deaths] | total axonal counts compared with saline controls (in words) (rat peroneal nerve) | peroneal total axonal counts (± SEM) (rat peroneal nerve) | light microscopic appearance of sciatic nerve at site of injection (sciatic nerve [3]) | onset of block at the first time point tested (sciatic nerve [1]; 2.0% lidocaine, 2 minutes after injection, sensory block, 5 rats) [%] | sensory block achieved (sciatic nerve [1]; 0.22% tetracaine) | sensory block achieved (sciatic nerve [1]; 0.5% tetracaine) | motor blockade (sciatic nerve [1]; tetracaine studies, all animals, data not shown)
CCN(CC)CCOC(=O)c1ccc(N)cc1Cl [2-chloroprocaine] | substantially shorter without co-administration of tetracaine | slower than with co-administration of tetracaine | about 30 minutes |  |  |  |  |  |  |  |  |  | 
CCCCN1CCCCC1C(=O)Nc1c(C)cccc1C (stereo not drawn) [bupivacaine] |  |  | 60 min | 4 | 8 | 102 | no significant difference | 1959±81 | indistinguishable from saline controls |  |  |  | 
CCN(CC)CC(=O)Nc1c(C)cccc1C [lidocaine] |  | nearly immediate | about 45 minutes |  |  |  | significantly reduced | 1602±167 | marked edema and neural damage | 100 |  |  | 
CCCCNc1ccc(C(=O)OCCN(C)C)cc1 [tetracaine] | dissipated rapidly | slow onset |  |  |  |  |  |  |  |  | less than 60% | less than 60% | complete, prolonged motor blockade
